Read-outs that look alike come from different tables or passages of the source.
How the values were obtained:
Type in all cases: cell-based
[1] = test system: renal carcinoma cells (786-O); assay: In vitro potency (CellTiter-Glo, 96 h), 786-O; conditions: Homo sapiens, 786-0, 96 h
Method: (§1) In vitro potency was assessed on multiple cancer cell lines. All cell lines were authenticated by STR profiling at IDEXX Bioresearch and cultured for no more than 2 months after resuscitation. Cells cultured in log-phase growth were seeded for 24 hours in 96-well plates containing […] RPMI 1640 supplemented with 20% FBS. Serial dilutions of antibody-drug conjugates in cell culture media were prepared at 4× working concentrations, and 50 μL of each dilution was added to the 96-well plates. Following addition of test articles, cells were incubated with test articles for 4 days at 37 0° C. After 96 hours, growth inhibition was assessed by CellTiterGlo® (Promega, Madison, WI) and luminescence was measured on a plate reader.
(§2) In Table 7, IC50 values for ADCs are given in ng/mL. Cell viability was determined by CellTiter-Glo staining after 96 h exposure to ADC. ND=Not Determined. Ag2 is an antibody targeting a ubiquitous and readily internalizable antigen. The cancer cell lines tested are renal carcinoma cells (786-0), melanoma cells (A2058), pancreatic cancer cells (BxPC3), non-small-cell lung cancer cells (Calu1), anaplastic large cell lymphoma cells (DEL, DELBVR, Karpas299), Hodgkin's lymphoma cells (L540cy), (Ls174T), breast cancer cells (MDA-MB-231), acute myeloid leukemia cells (MOLM-13), and B-lymphocyte cancer cells (SU-DHL4).
as §1, with “FBS.” for “FBS. Serial dilutions of antibody-drug conjugates in cell culture media were prepared at 4× working concentrations, and 50 μL of each dilution was added to the 96-well plates.”
(§3) Cell viability was determined by CellTiter-Glo staining after 96 h exposure to the compound. ND=Not Determined. The cancer cell lines tested are renal carcinoma cells (786-0), melanoma cells (A2058), pancreatic cancer cells (BxPC3), non-small-cell lung cancer cells (Calu1), anaplastic large cell lymphoma cells (DEL, DELBVR, Karpas299), Hodgkin's lymphoma cells (L540cy), (Ls 174T), breast cancer cells (MDA-MB-231), acute myeloid leukemia cells (MOLM-13), B-lymphocyte cancer cells (SU-DHL4), multiple myeloma cells (MM.1R), (U266), and melanoma cells (SK-MEL-5).
as §1, with “37°” for “37 0°”
(§4) In the following Tables IC50 values for ADCs and CPT free drugs are given in ng/mL and nmol/L concentrations. Cell viability was determined by CellTiter-Glo staining after 96 h exposure to ADC or CPT free drug.
(§5) Cell viability was determined by CellTiter-Glo staining after 96 h exposure to ADC. ND=Not Determined.

Ls174T cells = assay: In vitro potency (CellTiter-Glo, 96 h), Ls174T; conditions: Homo sapiens, LS174T, 96 h
Method: as §1, §2
as §1, with “FBS.” for “FBS. Serial dilutions of antibody-drug conjugates in cell culture media were prepared at 4× working concentrations, and 50 μL of each dilution was added to the 96-well plates.”
as §3
as §1, with “37°” for “37 0°”
as §4, §5

[2] = test system: acute myeloid leukemia cells (MOLM-13); assay: In vitro potency (CellTiter-Glo, 96 h), MOLM-13; conditions: Homo sapiens, MOLM-13, 96 h
Method: as §1, §2
as §1, with “FBS.” for “FBS. Serial dilutions of antibody-drug conjugates in cell culture media were prepared at 4× working concentrations, and 50 μL of each dilution was added to the 96-well plates.”
as §3
as §1, with “37°” for “37 0°”
as §4, §5

[3] = test system: pancreatic cancer cells (BxPC3); assay: In vitro potency (CellTiter-Glo, 96 h), BxPC3; conditions: Homo sapiens, BXPC-3, 96 h
Method: as §1, §2
as §1, with “FBS.” for “FBS. Serial dilutions of antibody-drug conjugates in cell culture media were prepared at 4× working concentrations, and 50 μL of each dilution was added to the 96-well plates.”
as §3
as §1, with “37°” for “37 0°”
as §4, §5

[4] = test system: anaplastic large cell lymphoma cells (Karpas299); assay: In vitro potency (CellTiter-Glo, 96 h), Karpas299; conditions: Homo sapiens, KARPAS-299, 96 h
Method: as §1, §2
as §1, with “FBS.” for “FBS. Serial dilutions of antibody-drug conjugates in cell culture media were prepared at 4× working concentrations, and 50 μL of each dilution was added to the 96-well plates.”
as §3
as §1, with “37°” for “37 0°”
as §4, §5

[5] = test system: anaplastic large cell lymphoma cells (DELBVR); assay: In vitro potency (CellTiter-Glo, 96 h), DELBVR
Method: as §1, §2
as §1, with “FBS.” for “FBS. Serial dilutions of antibody-drug conjugates in cell culture media were prepared at 4× working concentrations, and 50 μL of each dilution was added to the 96-well plates.”
as §3
as §1, with “37°” for “37 0°”
as §4, §5

[6] = test system: B-lymphocyte cancer cells (SU-DHL4); assay: In vitro potency (CellTiter-Glo, 96 h), SU-DHL-4; conditions: Homo sapiens, SU-DHL-4, 96 h
Method: as §1, §2
as §1, with “FBS.” for “FBS. Serial dilutions of antibody-drug conjugates in cell culture media were prepared at 4× working concentrations, and 50 μL of each dilution was added to the 96-well plates.”
as §3
as §1, with “37°” for “37 0°”
as §4, §5

[7] = test system: anaplastic large cell lymphoma cells (DEL); assay: In vitro potency (CellTiter-Glo, 96 h), DEL
Method: as §1, §2
as §1, with “FBS.” for “FBS. Serial dilutions of antibody-drug conjugates in cell culture media were prepared at 4× working concentrations, and 50 μL of each dilution was added to the 96-well plates.”
as §3
as §1, with “37°” for “37 0°”
as §4, §5

[8] = test system: Hodgkin's lymphoma cells (L540cy); assay: In vitro potency (CellTiter-Glo, 96 h), L540cy
Method: as §1, §2
as §1, with “FBS.” for “FBS. Serial dilutions of antibody-drug conjugates in cell culture media were prepared at 4× working concentrations, and 50 μL of each dilution was added to the 96-well plates.”
as §3
as §1, with “37°” for “37 0°”
as §4, §5

melanoma cells (A2058) = assay: In vitro potency (CellTiter-Glo, 96 h), A2058; conditions: Homo sapiens, A2058, 96 h, read-out: A2058 IC50
Method: as §1, §2
as §1, with “FBS.” for “FBS. Serial dilutions of antibody-drug conjugates in cell culture media were prepared at 4× working concentrations, and 50 μL of each dilution was added to the 96-well plates.”
as §3
as §1, with “37°” for “37 0°”
as §4, §5

[9] = test system: breast cancer cells (MDA-MB-231); assay: In vitro potency (CellTiter-Glo, 96 h), MDA-MB-231; conditions: Homo sapiens, MDA-MB-231, 96 h, read-out: MDAMB231 IC50, Table 29; CPT free drugs; breast cancer cells MDA-MB-231; 96 h, CellTiter-Glo
Method: as §1, §2
as §1, with “FBS.” for “FBS. Serial dilutions of antibody-drug conjugates in cell culture media were prepared at 4× working concentrations, and 50 μL of each dilution was added to the 96-well plates.”
as §3
as §1, with “37°” for “37 0°”
as §4, §5

[10] = read-out: 786-O IC50, Table 29, CPT free drugs, renal carcinoma cells 786-O, 96 h, CellTiter-Glo
[11] = read-out: Ls174T IC50, Table 29, CPT free drugs, Ls174T cells, CellTiter-Glo
[12] = read-out: MOLM-13 IC50, Table 29, CPT free drugs, acute myeloid leukemia cells MOLM-13, 96 h, CellTiter-Glo
[13] = read-out: BxPC3 IC50, Table 29, CPT free drugs, pancreatic cancer cells BxPC3, 96 h, CellTiter-Glo
[14] = read-out: Karpas299 IC50, Table 29, CPT free drugs, anaplastic large cell lymphoma cells Karpas299, 96 h, CellTiter-Glo
[15] = read-out: DELBVR IC50, Table 29, CPT free drugs, anaplastic large cell lymphoma cells DELBVR, CellTiter-Glo
[16] = read-out: SU-DHL-4 IC50, Table 29, CPT free drugs, B-lymphocyte cancer cells SU-DHL4, 96 h, CellTiter-Glo
[17] = read-out: DEL IC50, Table 29, CPT free drugs, anaplastic large cell lymphoma cells DEL, CellTiter-Glo
[18] = read-out: L540cy IC50, Table 29, CPT free drugs, Hodgkin's lymphoma cells L540cy, CellTiter-Glo

SMILES | IC50 ([1]; read-out: 786-O IC50, camptothecin free drug, 96 h) [nM] | IC50 (Ls174T cells; read-out: Ls174T IC50, camptothecin free drug, 96 h) [nM] | IC50 ([2]; read-out: MOLM-13 IC50, camptothecin free drug, 96 h) [nM] | IC50 ([3]; read-out: BxPC3 IC50, camptothecin free drug, 96 h) [nM] | IC50 ([4]; read-out: Karpas299 IC50, camptothecin free drug, 96 h) [nM] | IC50 ([5]; read-out: DELBVR IC50, camptothecin free drug, 96 h) [nM] | IC50 ([6]; read-out: SU-DHL-4 IC50, camptothecin free drug, 96 h) [nM] | IC50 ([7]; read-out: DEL IC50, camptothecin free drug, 96 h) [nM] | IC50 ([8]; read-out: L540cy IC50, camptothecin free drug, 96 h) [nM] | IC50 (melanoma cells (A2058)) [nM] | IC50 [9] [nM] | IC50 [1, 10] [nM] | IC50 (Ls174T cells; [11]) [nM] | IC50 [2, 12] [nM] | IC50 [3, 13] [nM] | IC50 [4, 14] [nM] | IC50 [5, 15] [nM] | IC50 [6, 16] [nM] | IC50 [7, 17] [nM] | IC50 [8, 18] [nM]
CC[C@@]1(O)C(=O)OCc2c1cc1n(c2=O)Cc2c-1nc1cc3c(cc1c2CNCCN1CCN(C)CC1)OCO3 [Compound 7b] | 162 | 77 | 533 | 172 | 158 | 55 | 94 | 54 | 87 | 55 |  |  |  |  |  |  |  |  |  | 
CC[C@@]1(O)C(=O)OCc2c1cc1n(c2=O)Cc2c-1nc1cc3c(cc1c2CN1CCN(CCN)CC1)OCO3 [Compound 8c] |  |  |  |  |  |  |  |  |  |  | 57 | 27 | 32 | 69 | 14 | 28 | 4 | 7 | 3 | 14
CC[C@@]1(O)C(=O)OCc2c1cc1n(c2=O)Cc2c-1nc1cc3c(cc1c2CNCCCN1CCNCC1)OCO3 [Compound 8d] |  |  |  |  |  |  |  |  |  |  | 25 | 15 | 19 | 37 | 14 | 9 | 2 | 6 | 2 | 6
CC[C@@]1(O)C(=O)OCc2c1cc1n(c2=O)Cc2c-1nc1cc3c(cc1c2CNC1CCNCC1)OCO3 [Compound 8e] |  |  |  |  |  |  |  |  |  |  | 102 | 104 | 109 | 89 | 62 | 72 | 10 | 25 | 7 | 36

— patent US20240207427A1, “SELECTIVE DRUG RELEASE FROM INTERNALIZED CONJUGATES OF BIOLOGICALLY ACTIVE COMPOUNDS” (priority 2021, published 2024)
